Laboratory results from patent US10189843B2, “Fused pyrazole derivative having autotaxin inhibitory activity” (The University of Tokyo, priority 2014, dated 2019).

Target: T1, Human autotaxin enzyme (Homo sapiens, UniProt Q13822)
T1 construct: purchased R&D System
Assay: Evaluation of autotaxin inhibitor, Method C (18:0 Lyso PC substrate, choline assay, Resorufin fluorescence)
Type: biochemical
Settings: Method C (Test Example 3), read-out: Inhibitory activity (enzyme inhibitory activity, IC50)
Protocol: Test Example 3 (Method C) Evaluation of Autotaxin Inhibitor
Solution B containing 100 mM Tris-HCl buffer (pH7.5), 150 mM NaCl, 5 mM MgCl2, and 0.05% Triton X-100 was prepared. Human autotaxin enzyme (purchased from R&D System) was diluted with Solution B, and 2.5 μl of which was added to a solution of test compound in DMSO. Furthermore, 2.5 μl of 200 μM 18:0 Lyso PC (purchased from Avanti Polar Lipids) in Solution B was added and allowed to react at room temperature for 2 hours. After completion of the reaction, 15 μl of the coline assay reagent (100 mM Tris-HCl buffer (pH7.5), 5 mM MgCl2, 77 μg/ml coline oxidase, 10 μg/ml peroxydase, 25 μM 10-acetyl-3,7-dihydroxyphenoxazine, and excess autotaxin inhibitor) was added and allowed to react at room temperature for 20 minutes. The fluorescent dye Resorufin, which was produced by the reaction, was detected. The fluorescence was detected using ViewLux (PerkinElmer, Inc.) with a excitation wavelength of 531 nm and a fluorescence wavelength of 598 nm.
The percent inhibition of the test compound was calculated by assuming the sample with no test compound as 0% inhibition and the sample with no enzyme as 100% inhibition, and the percent inhibitions at different concentrations of the test compound were plotted to obtain a concentration-dependent curve.

Row | Structure (SMILES) | IC50
1 | CCCCCC1CN(CC(=O)N2CCCCCC2)C(=O)c2cc(-c3ccc(Cl)cc3)nn21 (centres unmarked) [Compound I-0098] | 0.1 to 1 µM
2 | CCCCCC1CN(CC(=O)NCc2ccccc2)C(=O)c2cc(-c3ccc(Cl)cc3)nn21 (centres unmarked) [Compound I-0099] | 0.1 to 1 µM
3 | CCCCCC1CN(CC(=O)N2CCNCC2)C(=O)c2cc(-c3ccc(Cl)cc3)nn21 (centres unmarked) [Compound I-0100] | 0.1 to 1 µM
4 | CCCCCC1CN(CC(=O)N2CCOCC2)C(=O)c2cc(-c3ccc(Cl)cc3)nn21 (centres unmarked) [Compound I-0101] | 0.1 to 1 µM
5 | CCCCCC1CN(CC(=O)N(C)CCN(C)C)C(=O)c2cc(-c3ccc(Cl)cc3)nn21 (centres unmarked) [Compound I-0102] | ≥ 1 µM
6 | CCCCCC1CN(CC(=O)NCCN(C)C)C(=O)c2cc(-c3ccc(Cl)cc3)nn21 (centres unmarked) [Compound I-0103] | ≥ 1 µM
7 | CCCCCC1CN(CC(=O)NCCCN(C)C)C(=O)c2cc(-c3ccc(Cl)cc3)nn21 (centres unmarked) [Compound I-0104] | ≥ 1 µM
8 | CCCCCC1CN(CC(=O)N2CCCCC2c2ccccc2)C(=O)c2cc(-c3ccc(Cl)cc3)nn21 (centres unmarked) [Compound I-0105] | 0.1 to 1 µM
9 | CCCCCC1CN(CC(=O)N2CCCC(c3ccccc3)C2)C(=O)c2cc(-c3ccc(Cl)cc3)nn21 (centres unmarked) [Compound I-0106] | 0.1 to 1 µM
10 | CCCCCC1CN(CC(=O)N2CCCC2c2ccccc2)C(=O)c2cc(-c3ccc(Cl)cc3)nn21 (centres unmarked) [Compound I-0107] | 0.1 to 1 µM
11 | CCCCCC1CN(CC(=O)NCC)C(=O)c2cc(-c3ccc(Cl)cc3)nn21 (centres unmarked) [Compound I-0108] | 0.1 to 1 µM
12 | CCCCCC1CN(CC(=O)N2CCCCC2CCN2CCOCC2)C(=O)c2cc(-c3ccc(Cl)cc3)nn21 (centres unmarked) [Compound I-0109] | ≥ 1 µM
13 | CCCCCC1CN(CC(=O)N2CCC(c3ccccc3)C2)C(=O)c2cc(-c3ccc(Cl)cc3)nn21 (centres unmarked) [Compound I-0110] | 0.1 to 1 µM
14 | CCCCCC1CN(CC(=O)N2CCC(N(C)C)CC2)C(=O)c2cc(-c3ccc(Cl)cc3)nn21 (centres unmarked) [Compound I-0111] | ≥ 1 µM
15 | CCCCCC1CN(CC(=O)N2CCC(C(N)=O)C2)C(=O)c2cc(-c3ccc(Cl)cc3)nn21 (centres unmarked) [Compound I-0112] | 0.1 to 1 µM
16 | CCCCCC1CN(CC(=O)N2CCC(=O)CC2)C(=O)c2cc(-c3ccc(Cl)cc3)nn21 (centres unmarked) [Compound I-0113] | 0.01 to 0.1 µM
17 | CCCCCC1CN(CC(=O)OCC2CCCCN2)C(=O)c2cc(-c3ccc(Cl)cc3)nn21 (centres unmarked) [Compound I-0114] | ≥ 1 µM
18 | CCCCCC1CN(CC(=O)N2CCCC(C)C2)C(=O)c2cc(-c3ccc(Cl)cc3)nn21 (centres unmarked) [Compound I-0115] | 0.1 to 1 µM
19 | CCCCCC1CN(CC(=O)N2CCCCC2C)C(=O)c2cc(-c3ccc(Cl)cc3)nn21 (centres unmarked) [Compound I-0116] | 0.01 to 0.1 µM
20 | CCCCCC1CN(CC(=O)N2CCC[C@H]2C)C(=O)c2cc(-c3ccc(Cl)cc3)nn21 (some centres unmarked) [Compound I-0117] | 0.1 to 1 µM
21 | CCCCCC1CN(CC(=O)N(C)c2ccc(C(=O)O)cc2)C(=O)c2cc(-c3ccc(Cl)cc3)nn21 (centres unmarked) [Compound I-0118] | ≥ 1 µM
22 | CCCCCC1CN(CC(=O)NCc2ccccc2C(=O)O)C(=O)c2cc(-c3ccc(Cl)cc3)nn21 (centres unmarked) [Compound I-0119] | 0.01 to 0.1 µM
23 | CCCCCC1CN(Cc2cccc(CC(=O)O)c2)C(=O)c2cc(-c3ccc(Cl)cc3)nn21 (centres unmarked) [Compound I-0120] | 0.01 to 0.1 µM

Row | Structure (SMILES) | IC50
24 | CCCCCC1CN(Cc2cccc3c(C(=O)O)csc23)C(=O)c2cc(-c3ccc(Cl)cc3)nn21 (centres unmarked) [Compound I-0121] | 0.01 to 0.1 µM
25 | CCCCCC1CN(Cc2cc(C)cc(C(=O)O)c2)C(=O)c2cc(-c3ccc(Cl)cc3)nn21 (centres unmarked) [Compound I-0122] | 0.01 to 0.1 µM
26 | CCCCCC1CN(Cc2ccc(O)cc2)C(=O)c2cc(-c3ccc(Cl)cc3)nn21 (centres unmarked) [Compound I-0123] | ≥ 1 µM
27 | CCCCCC1CN(Cc2ccc(CC(=O)O)cc2)C(=O)c2cc(-c3ccc(Cl)cc3)nn21 (centres unmarked) [Compound I-0124] | < 0.01 µM
28 | CCCCCC1CN(Cc2cccc(CC(=O)OCC)c2)C(=O)c2cc(-c3ccc(Cl)cc3)nn21 (centres unmarked) [Compound I-0125] | ≥ 1 µM
29 | CCCCCC1CN(Cc2cc(C)cc(C(=O)OC)c2)C(=O)c2cc(-c3ccc(Cl)cc3)nn21 (centres unmarked) [Compound I-0126] | ≥ 1 µM
30 | CCCCCC1CN(Cc2ccccc2C)C(=O)c2cc(-c3ccc(Cl)cc3)nn21 (centres unmarked) [Compound I-0127] | ≥ 1 µM
31 | CCCCCC1CN(Cc2cccc(C)c2)C(=O)c2cc(-c3ccc(Cl)cc3)nn21 (centres unmarked) [Compound I-0128] | ≥ 1 µM
32 | CCCCCC1CN(Cc2ccccc2C#N)C(=O)c2cc(-c3ccc(Cl)cc3)nn21 (centres unmarked) [Compound I-0129] | ≥ 1 µM
33 | CCCCCC1CN(Cc2ccc(C)cc2)C(=O)c2cc(-c3ccc(Cl)cc3)nn21 (centres unmarked) [Compound I-0130] | 0.1 to 1 µM
34 | CCCCCC1CN(Cc2cccc(C#N)c2)C(=O)c2cc(-c3ccc(Cl)cc3)nn21 (centres unmarked) [Compound I-0131] | 0.1 to 1 µM
35 | CCCCCC1CN(Cc2ccc(C#N)cc2)C(=O)c2cc(-c3ccc(Cl)cc3)nn21 (centres unmarked) [Compound I-0132] | 0.01 to 0.1 µM
36 | CCCCCC1CN(Cc2ccc(NC(C)=O)cc2)C(=O)c2cc(-c3ccc(Cl)cc3)nn21 (centres unmarked) [Compound I-0133] | ≥ 1 µM
37 | CCCCCC1CN(Cc2ccc(OCCCN(C)C)cc2)C(=O)c2cc(-c3ccc(Cl)cc3)nn21 (centres unmarked) [Compound I-0134] | ≥ 1 µM
38 | CCCCCC1CN(Cc2cccc(OCCCN(C)C)c2)C(=O)c2cc(-c3ccc(Cl)cc3)nn21 (centres unmarked) [Compound I-0135] | 0.1 to 1 µM
39 | CCCCCC1CN(Cc2cc(C(C)=O)ccc2OC)C(=O)c2cc(-c3ccc(Cl)cc3)nn21 (centres unmarked) [Compound I-0136] | ≥ 1 µM
40 | CCCCCC1CN(Cc2cccc(C(=O)N3CCC(O)CC3)c2)C(=O)c2cc(-c3ccc(Cl)cc3)nn21 (centres unmarked) [Compound I-0137] | 0.01 to 0.1 µM
41 | CCCCCC1CN(Cc2ccccc2OCCCN(C)C)C(=O)c2cc(-c3ccc(Cl)cc3)nn21 (centres unmarked) [Compound I-0138] | 0.1 to 1 µM
42 | CCCCCC1CN(Cc2ccccc2S(=O)(=O)N2CCOCC2)C(=O)c2cc(-c3ccc(Cl)cc3)nn21 (centres unmarked) [Compound I-0139] | ≥ 1 µM
43 | CCCCCC1CN(Cc2ccc(OC(C)=O)cc2)C(=O)c2cc(-c3ccc(Cl)cc3)nn21 (centres unmarked) [Compound I-0140] | ≥ 1 µM
44 | CCCCCC1CN(Cc2ccc(S(C)(=O)=O)cc2)C(=O)c2cc(-c3ccc(Cl)cc3)nn21 (centres unmarked) [Compound I-0141] | 0.1 to 1 µM
45 | CCCCCC1CN(Cc2cccc(NC(C)=O)c2)C(=O)c2cc(-c3ccc(Cl)cc3)nn21 (centres unmarked) [Compound I-0142] | 0.1 to 1 µM
46 | CCCCCC1CN(Cc2ccc(CC(=O)OC)cc2)C(=O)c2cc(-c3ccc(Cl)cc3)nn21 (centres unmarked) [Compound I-0143] | ≥ 1 µM

Row | Structure (SMILES) | IC50
47 | CCCCCC1CN(Cc2ccccc2CS(=O)(=O)c2ccccc2)C(=O)c2cc(-c3ccc(Cl)cc3)nn21 (centres unmarked) [Compound I-0144] | ≥ 1 µM
48 | CCCCCC1CN(Cc2ccc(CO)cc2)C(=O)c2cc(-c3ccc(Cl)cc3)nn21 (centres unmarked) [Compound I-0145] | 0.1 to 1 µM
49 | CCCCCC1CN(Cc2ccc(Oc3ccccc3)cc2)C(=O)c2cc(-c3ccc(Cl)cc3)nn21 (centres unmarked) [Compound I-0146] | ≥ 1 µM
50 | CCCCCC1CN(Cc2ccc(C(N)=O)cc2)C(=O)c2cc(-c3ccc(Cl)cc3)nn21 (centres unmarked) [Compound I-0147] | 0.1 to 1 µM
51 | CCCCCC1CN(Cc2cccc(C(=O)O)c2)C(=O)c2cc(-c3ccc(Cl)cc3)nn21 (centres unmarked) [Compound I-0148] | < 0.01 µM
52 | O=C(O)c1cccc(CN2C(=O)c3cc(-c4ccc(Cl)cc4)nn3[C@H]3CCC[C@H]32)c1 [Compound I-0149] | 0.1 to 1 µM
53 | CCCCC1CN(Cc2cccc(C(=O)O)c2)C(=O)c2cc(-c3ccc(Cl)cc3)nn21 (centres unmarked) [Compound I-0150] | < 0.01 µM
54 | CCCCC1CN(CNC(C)=O)C(=O)c2cc(-c3ccc(Cl)cc3)nn21 (centres unmarked) [Compound I-0151] | 0.01 to 0.1 µM
55 | C[C@H]1CN(CC(=O)N2CCOCC2)C(=O)c2cc(-c3ccc(Cl)cc3)nn21 [Compound I-0152] | ≥ 1 µM
56 | CCCCNC(=O)CN1C[C@H](C)n2nc(-c3ccc(Cl)cc3)cc2C1=O [Compound I-0153] | ≥ 1 µM
57 | C[C@H]1CN(CC(=O)N2CCCC2)C(=O)c2cc(-c3ccc(Cl)cc3)nn21 [Compound I-0154] | ≥ 1 µM
58 | C[C@H]1CN(CC(=O)N(C)CC(=O)O)C(=O)c2cc(-c3ccc(Cl)cc3)nn21 [Compound I-0155] | ≥ 1 µM
59 | C[C@H]1CN(CC(=O)NCCC(=O)O)C(=O)c2cc(-c3ccc(Cl)cc3)nn21 [Compound I-0156] | ≥ 1 µM
60 | C[C@H]1CN(CC(=O)NCCCC(=O)O)C(=O)c2cc(-c3ccc(Cl)cc3)nn21 [Compound I-0157] | ≥ 1 µM
61 | C[C@H]1CN(CC(=O)C2CCCCN2C(=O)O)C(=O)c2cc(-c3ccc(Cl)cc3)nn21 (some centres unmarked) [Compound I-0158] | 0.1 to 1 µM
62 | C[C@H]1CN(CC(=O)N2CCCC(C(=O)O)C2)C(=O)c2cc(-c3ccc(Cl)cc3)nn21 (some centres unmarked) [Compound I-0159] | ≥ 1 µM
63 | C[C@H]1CN(CC(=O)NC(Cc2ccccc2)C(=O)O)C(=O)c2cc(-c3ccc(Cl)cc3)nn21 (some centres unmarked) [Compound I-0160] | 0.01 to 0.1 µM
64 | CCCC(NC(=O)CN1C[C@H](C)n2nc(-c3ccc(Cl)cc3)cc2C1=O)C(=O)O (some centres unmarked) [Compound I-0161] | 0.1 to 1 µM
65 | C[C@H]1CN(CC(=O)NCC(=O)O)C(=O)c2cc(-c3ccc(Cl)cc3)nn21 [Compound I-0162] | ≥ 1 µM
66 | C[C@H]1CN(Cc2cccc(CC(=O)O)c2)C(=O)c2cc(-c3ccc(Cl)cc3)nn21 [Compound I-0163] | 0.1 to 1 µM
67 | C[C@H]1CN(Cc2cccc(C#N)c2)C(=O)c2cc(-c3ccc(Cl)cc3)nn21 [Compound I-0164] | 0.1 to 1 µM
68 | C[C@H]1CN(Cc2ccc(C#N)cc2)C(=O)c2cc(-c3ccc(Cl)cc3)nn21 [Compound I-0165] | ≥ 1 µM
